The test system of one test is hearing in rats. The test can be described thus: Auditory Evoked Brainstem Response (ABR), permanent threshold shift after cisplatin. The following applies: cisplatin 16 mg/kg plus Ebselen 16 mg/kg i.p., compared to cisplatin without Ebselen, 72 hours (FIG. 8). In kind it is in vivo, rat. How it is done:
(§1) Auditory Evoked Brainstem Response (ABR) was used to assess hearing in rats before and after exposure to cisplatin and chemoprotectants. Ebselen or DMSO (control vehicle) were introduced intraperitoneally into rats one hour before intraperitoneal administration of cisplatin at a dosage of 16 mg/kg body weight. Seventy two hours after delivery of cisplatin, ABR data were collected, animals were sacrificed, cochleae were collected, dissected, stained with FITC-phalloidin (to detect F-Actin in hair cells), and DAPI (to detect nuclear DNA).

The subject of test [1] is cochlear outer hair cells. The test can be described thus: Count of outer auditory hair cells in excised cochleae after cisplatin. It counts as in vivo, rat. The settings on record: rats, cisplatin plus Ebselen compared to cisplatin without Ebselen (FIG. 10A, 10B). How it is done:
as §1
Additionally, cochleae were excised from rats treated with the combination of cisplatin and Ebselen as described in this Example. Cochleae were also excised from rats treated with cisplatin and saline and DMSO (control). The number of outer auditory hair cells in the excised cochlea were counted at intervals of 0.1 mm along the cochlea. Representative results from a control rat and a treated rat are shown in FIG. 10A and FIG. 10B, respectively.

The subject of another test is inner ear hair cells. The test can be described thus: Cochlea explant culture, inner ear hair cell count after cisplatin. It counts as cell-based, mouse. The settings on record: 43 μM cisplatin plus 47 μM Ebselen, 24 hours (FIG. 7). The method, then: Three cochlea per treatment, obtained from P3-4 mouse pups, were cultured in 0.4 micrometer MilliCell-CM inserts with NeuroBasal A medium plus B27 supplement. After 24 hours in culture Ebselen was added to the medium, incubated for ten minutes, and then cisplatin was added to the medium at a final concentration of 43 μM. A first control treatment included 43 μM cisplatin. A second control treatment included 47 μM Ebselen without the addition of cisplatin. All cultures were incubated for 24 hours at 37° C. in 5% carbon dioxide.
The explants were then harvested, fixed, and stained with calbindin (which detects hair cells) and DAPI (4′,6-Diamindino-2-phenylindole; for detection of nuclear DNA).

The test system of test [2] is NuTu-19 ovarian cancer cells. The test can be described thus: MTS cell viability assay of cultured NuTu-19 cells. In kind it is cell-based. The settings on record: for inhibition of the ability of cisplatin to kill NuTu-19 ovarian cancer tumor cells in culture: single chemoprotectant plus cisplatin 43 μM (FIG. 2-4). The method, then:
NuTu-19 cells were plated at a density of 3,000 cells per well in 96 well culture dishes, and incubated at 37° C., in the presence of 5% carbon dioxide, for 24 hours. N-acetylcysteine, Ebselen or allopurinol were incubated for one hour, or for four hours, with the NuTu-19 cells, then cisplatin was added to the cultures which were further incubated at 37° C., in the presence of 5% carbon dioxide, for 24 hours. The NuTu-19 cells were then rinsed with media and incubated in […] cisplatin for an additional 24 hours.
The NuTu-19 cells were then rinsed twice with phosphate buffered saline (PBS), then MTS assays were performed to measure the number of living cells. MTS is an abbreviation for (3-(4,5-dimethylthiazol-2-yl)-5-(3-carboxymethoxyphenyl)-2-(4-sulfophenyl)-2H-tetrazolium. The MTS assay is a colorimetric method for determining the number of viable cells based upon physiologic catabolism of MTS to a formazan product that is soluble in tissue culture medium. The absorbance of the formazan product at 490 nm can be measured directly from a 96 well plate using a plate reader. Increased absorbance at 490 nm correlates with increased production of formazan in a well. This is typically due to more viable cells present in a well.

In the case of `O=c1c2ccccc2[se]n1-c1ccccc1` [Ebselen, 2-phenyl-1,2-benzoisoselenazol-3(2H)-one], the “permanent threshold shift (PTS) in hearing at 8, 16, 24 and 32 kHz” value in the test on hearing in rats is recorded as “less”. Moreover, the “percentage of outer hair cells missing in cochleae” value in test [1] is listed as “less”. In addition, the “number of inner ear hair cells (protection from damage by cisplatin in vitro)” value in the test on inner ear hair cells is reported as “protects”. Besides, the “inhibition of the ability of cisplatin to kill NuTu-19 ovarian cancer tumor cells in culture” value (“inhibition of the ability of cisplatin” for short) in test [2] was “does not inhibit”.

On to `CC(=O)N[C@@H](CS)C(=O)O` [N-acetylcysteine, N-acetyl-L-Cysteine], for which the “inhibition of the ability of cisplatin” value in test [2] was “does not inhibit”.

As to `Oc1ncnc2[nH]ncc12` [allopurinol, 4-hydroxypyrazolo[3,4-d]pyrimidine], the “inhibition of the ability of cisplatin” value in test [2] is given as “does not inhibit”.

Take `N.N.[Cl][Pt][Cl]` [cisplatin, cis-diamminedichloroplatinum]: in test [2] (incubation for 24 hours in the presence of cisplatin (FIG. 1)), the “percentage of live, cultured NuTu-19 ovarian cancer cells” value is reported as “killed”.

Source of the values: patent publication US8309560B2, “Methods and compositions for ameliorating the undesirable effects of chemotherapy” (Sound Pharmaceuticals Incorporated, priority 2001, dated 2012).
